Laboratory results: patent US20240123076A1, “UNSATURATED DENDRIMERS COMPOSITIONS, RELATED FORMULATIONS, AND METHODS OF USE THEREOF” (The Board of Regents of The University of Texas System, priority 2021, published 2024)
“Also recorded” adds a separate entry of the source.

Assays:
[1] = tested on: IGROV-1 cells; assay: In vitro luciferase expression of Luc mRNA LNPs; assay type: cell-based; conditions: IGROV-I cells, 25 ng mRNA per well, 24 h; lipid:DOPE:cholesterol:DMG-PEG2k 15:15:30:3
Procedure: Ionizable lipid, DOPE, cholesterol, DMG-PEG2k were dissolved in ethanol as noted below (S2, base formulation). Firefly Luciferase (Luc) mRNA was diluted in 10 mM citric acid-sodium citrate buffer (pH 4.4). The lipid mixture and nucleic acid solution were rapidly combined at a volumetric ratio of 3:1 nucleic acid:lipid mix. Afterwards, the LNP formulations were diluted with 1×PBS to 1 ng/uL concentration.
IGROV-1 cells were seeded into white 96-well plates at a density of 1×10^4 cells per well the day before transfection with media. Day of transfection, the media was replaced with 200 μL of fresh media. Then, 25 μL of the Luc mRNA formulations were added with a fixed dose of 25 ng mRNA per well. After incubation for another 24 hours, ONE-Glo+ Tox kits (Promega) were used to detect Luc mRNA expression and cytotoxicity.

[2] = tested on: C57BL/6 mice; assay: In vivo luciferase mRNA delivery (bioluminescence imaging, liver); conditions: 4-component LNP, tail vein, 0.25 mg/kg Luc mRNA, 6 h
Procedure: Ionizable lipid(s), DOPE, cholesterol, DMG-PEG2k were dissolved in ethanol as noted below in S2, and the Luc mRNA was diluted in 10 mM citric acid-sodium citrate buffer (pH 4.4) at the desired dosage. The lipid mixture and nucleic acid dilution were rapidly combined at a volumetric ratio of 3:1 nucleic acid:lipid mix. The nanoparticles were dialyzed against 1×PBS in Pur-A-Lyzer midi dialysis chambers (Sigma-Aldrich, WMCO 3.5 kDa) for 2 hours prior to injection.
All experiments were approved by the Institutional Animal Care & Use Committee (IACUC) of The University of Texas Southwestern Medical Center and were consistent with local, state and federal regulations as applicable. Female C57BL/6 mice (18-20 g) were injected with LNP formulations via tail vein injection (5 ug of mRNA, 0.25 mg/kg). After 6 h, the luciferase expression was evaluated by live animal bioluminescence imaging. Animals were anesthetized under isofluorane, and D-Luciferin (150 mg/kg) was introduced by intraperitoneal injection. Then, the luciferase activity was imaged, and ex vivo imaging was performed on systemic organs after resection on an IVIS Lumina system (Perkin Elmer). The images were processed using Living Image analysis software (Perkin Elmer).

[3] = Lipid fusion assay (FRET); conditions: PBS pH 5.5, 37° C., 5 min
Procedure: Endosome mimicking anionic liposomes were prepared by mixing DOPS:DOPC:DOPE:NBD-PE:N-Rh-PE (25:25:48:1:1 molar ratio) in CHCl3 at a fixed total lipid concentration of 1 mM. Afterwards, the film was created by rotary evaporation of the solution, followed by 2 h of vacuum drying to produce a thin lipid film.
LNPs were formulated with the in vivo method. 100 uL PBS (pH 5.5) was added to each well in a black 96-well plate (n=3 per sample), and 1 μL of endosome mimicking anionic liposomes (1 mM) was added to each well. Endosome mimicking anionic liposomes in PBS served as the negative control (Fmin), and the endosome mimic lipids incubated with 2% Triton-X in PBS solutions were set as positive control (Fmax). 10 μL of LNPs being tested were added to the wells (n=3). After incubating at 37° C. for 5 min., fluorescence measurements (F) were conducted on a microplate reader at Ex/Em=465/520 nm. The lipid fusion (%) was calculated as (F−Fmin)/(Fmax−Fmin)*100%.
Fluorescence resonance energy transfer (FRET)-based assay was employed to determine the LNP's ability to disrupt and fuse with the endosomal membrane (FIG. 4). DOPE-conjugated FRET probes (NBD-PE and N—Rh-PE) were formulated into endosome-mimicking nanoparticles. NBD is normally quenched by the rhodamine, but the NBD signal would rise if disruption of the membrane occurred. […]

[4] = tested on: C57BL/6 mice; assay: Biodistribution of Cy5 Luc mRNA LNPs (ex vivo imaging); assay type: in vivo; conditions: IV, 0.25 mg/kg, 6 hours, ex vivo organs
[5] = tested on: IGROVI cells; assay: Cellular uptake and intracellular trafficking of Cy5-labeled mRNA LNPs (confocal imaging); assay type: cell-based; conditions: for co-localization of Cy5 mRNA with lysosomes: 4 h and 24 h after incubation; for cellular uptake (internalization) of Cy5 Luc mRNA LNPs: at 4 hours and 24 hours
Procedure: Flash chromatography was performed on a Teledyne Isco CombiFlash Rf-200i chromatography system equipped with UV-Vis and evaporative light scattering detectors (ELSD) or manually using 60 Å, 40-63 um Silica (Sorbtech) or activated, neutral Aluminum Oxide (Sigma-Aldrich). Particle sizes and PDI were measured by Dynamic Light Scattering (DLS) using a Malvern Zetasizer Nano ZS (He-Ne laser, λ=632 nm). Confocal microscopy was conducted using a Zeiss LSM-710 laser scanning confocal microscope and data analyzed with the Zeiss LSM-710 software.
Cellular uptake and intracellular trafficking was further examined, in vitro experiments were performed using Cy5-labeled mRNA LNPs. […] The progression of Cy5 mRNA was further tracked from the cell membrane to endosomes to lysosomes and quantified co-localization of Cy5 mRNA with lysosomes. […] The overall results connected chemical structure to factors including cellular uptake, endosomal escape, and intracellular trafficking.

Structure (SMILES): C/C=C/CCCSC(C)C(=O)OCCOC(=O)CCN(CCCN(C)CCCN(CCC(=O)OCCOC(=O)C(C)SCCC/C=C/C)CCC(=O)OCCOC(=O)C(C)SCCC/C=C/C)CCC(=O)OCCOC(=O)C(C)SCCC/C=C/C (centres unmarked) [4A3-4T]
- Luc mRNA expression (in vitro Luc mRNA delivery) [1]: most potent

Structure (SMILES): CC/C=C\C/C=C\CSC(C)C(=O)OCCOC(=O)CCN(CCCN(C)CCCN(CCC(=O)OCCOC(=O)C(C)SC/C=C\C/C=C\CC)CCC(=O)OCCOC(=O)C(C)SC/C=C\C/C=C\CC)CCC(=O)OCCOC(=O)C(C)SC/C=C\C/C=C\CC (centres unmarked) [4A3-8/2]
- Luc mRNA expression in vivo (mRNA delivery) [2]: lower Luc expression compared to its alkyl partner

Structure (SMILES): CC(C)=CCCC(C)CCSC(C)C(=O)OCCOC(=O)CCN(CCCN(C)CCCN(CCC(=O)OCCOC(=O)C(C)SCCC(C)CCC=C(C)C)CCC(=O)OCCOC(=O)C(C)SCCC(C)CCC=C(C)C)CCC(=O)OCCOC(=O)C(C)SCCC(C)CCC=C(C)C (centres unmarked) [4A3-Cit]
- Luc mRNA expression in vivo (mRNA delivery) ([2]; 0.25 mg/kg): performed better than 4A3-Ne; also recorded: highest efficacy
- lipid fusion with the model endosomal membrane [3]: efficacious; also recorded: highest lipid fusion ability
- biodistribution of Cy5 Luc mRNA (ROI values) [4]: no statistical difference; also recorded: did not change the biodistribution
- co-localization of Cy5 mRNA with lysosomes [5]: reduced colocalization with lysosomes
- cellular uptake (internalization) of Cy5 Luc mRNA LNPs [5]: effectively internalized
- speed of internalization of Cy5 Luc mRNA LNPs ([5]; at 4 hours, versus saturated 4A3-SC8 LNPs): internalizing slightly faster

Structure (SMILES): CCCCCCCCSC(C)C(=O)OCCOC(=O)CCN(CCCN(C)CCCN(CCC(=O)OCCOC(=O)C(C)SCCCCCCCC)CCC(=O)OCCOC(=O)C(C)SCCCCCCCC)CCC(=O)OCCOC(=O)C(C)SCCCCCCCC (centres unmarked) [4A3-SC8, reference compound]
- biodistribution of Cy5 Luc mRNA (ROI values) [4]: no statistical difference
- co-localization of Cy5 mRNA with lysosomes [5]: reduced colocalization with lysosomes
- cellular uptake (internalization) of Cy5 Luc mRNA LNPs [5]: effectively internalized
